In the NIST ThermoML archive (doi:10.1021/je8006937):
Several values for one entry are separate records, joined by “and”; a condition that tells them apart may be missing. Equal values may be shown once.

Conditions: Liquid, Pendant drop shape

CCCCn1cc[n+](C)c1.CCOCCOCCOS(=O)(=O)[O-] [1-butyl-3-methylimidazolium 2-(2-ethoxyethoxy)ethylsulfate] + O=C=O
Conditions | interfacial tension [mN/m]
281.3 K, 1960 kPa | 23
281.3 K, 3680 kPa | 10.8
281.31 K, 100 kPa | 34.5
281.31 K, 3150 kPa | 15.1
281.32 K, 1110 kPa | 28.2
281.48 K, 4300 kPa | 4.6
281.58 K, 5100 kPa | 4.5
281.58 K, 6970 kPa | 4.5
281.61 K, 9890 kPa | 4
281.61 K, 13700 kPa | 3.8
281.63 K, 17000 kPa | 3.7
281.63 K, 19930 kPa | 3.5
281.69 K, 100 kPa | 34.3
281.69 K, 1490 kPa | 25.4
281.7 K, 600 kPa | 30.6
281.7 K, 2830 kPa | 17.3
281.7 K, 4160 kPa | 6.5
281.84 K, 4340 kPa | 4.9
281.86 K, 12130 kPa | 4.4
281.87 K, 5900 kPa | 4.7
281.91 K, 18060 kPa | 3.7
295.14 K, 100 kPa | 34
295.2 K, 100 kPa | 34.2
295.3 K, 1030 kPa | 29.3
295.39 K, 1980 kPa | 25
295.5 K, 3350 kPa | 18.8
295.8 K, 3950 kPa | 16.3
296.03 K, 4960 kPa | 12.4
296.29 K, 6150 kPa | 12.8
296.31 K, 6630 kPa | 5.8
296.35 K, 8190 kPa | 5.6
296.42 K, 10120 kPa | 5.2
296.5 K, 14370 kPa | 4.8
296.53 K, 17640 kPa | 4.5
319.53 K, 100 kPa | 33.3
319.57 K, 2130 kPa | 27.7
319.58 K, 1030 kPa | 30.4
319.58 K, 3610 kPa | 23.6
319.59 K, 5010 kPa | 19.5
319.6 K, 6190 kPa | 16.4
319.63 K, 7090 kPa | 14
319.69 K, 8100 kPa | 12.3
319.71 K, 9070 kPa | 7.7
319.78 K, 10070 kPa | 7.9
319.78 K, 11080 kPa | 8
319.79 K, 11720 kPa | 7.9
319.85 K, 14840 kPa | 7.6
319.91 K, 17840 kPa | 7.1
319.94 K, 20870 kPa | 6.7

CCOCCOCCOS(=O)(=O)[O-].CCn1cc[n+](C)c1 [1-ethyl-3-methylimidazolium 2-(2-ethoxyethoxy)ethylsulfate] + O=C=O
Conditions | interfacial tension
280.25 K, 100 kPa | 36.7 mN/m and 37.3 mN/m
280.26 K, 1170 kPa | 30.3 mN/m
280.26 K, 2340 kPa | 22.6 mN/m
280.26 K, 3340 kPa | 15.5 mN/m
280.28 K, 3950 kPa | 9.8 mN/m
280.4 K, 4240 kPa | 6.3 mN/m
280.46 K, 5230 kPa | 6.6 mN/m
280.46 K, 7030 kPa | 6 mN/m
280.49 K, 8960 kPa | 5.8 mN/m
280.51 K, 10860 kPa | 5.4 mN/m
280.53 K, 12970 kPa | 5.4 mN/m
280.54 K, 15110 kPa | 5.1 mN/m
280.55 K, 17290 kPa | 5.1 mN/m
280.58 K, 20670 kPa | 4.7 mN/m
299.4 K, 100 kPa | 36.2 mN/m
299.43 K, 4810 kPa | 14.9 mN/m
299.43 K, 14740 kPa | 6.6 mN/m
299.45 K, 16390 kPa | 6.4 mN/m
299.46 K, 17880 kPa | 6.2 mN/m
299.47 K, 6680 kPa | 8.6 mN/m
299.48 K, 20360 kPa | 6 mN/m
299.53 K, 10230 kPa | 7.6 mN/m
299.54 K, 12350 kPa | 6.8 mN/m
299.55 K, 8330 kPa | 7.9 mN/m
319.74 K, 2000 kPa | 28.5 mN/m
319.74 K, 3090 kPa | 25.1 mN/m
319.74 K, 4040 kPa | 22.2 mN/m
319.75 K, 100 kPa | 35.5 mN/m and 35.4 mN/m
319.75 K, 1010 kPa | 31.5 mN/m
319.75 K, 5010 kPa | 19.4 mN/m
319.76 K, 5950 kPa | 16.5 mN/m
319.76 K, 8950 kPa | 7.6 mN/m
319.78 K, 7260 kPa | 13.1 mN/m
319.87 K, 10740 kPa | 9.8 mN/m
319.87 K, 12430 kPa | 8.9 mN/m
319.95 K, 14470 kPa | 8.4 mN/m
319.98 K, 17410 kPa | 7.8 mN/m
320.03 K, 20790 kPa | 7.7 mN/m
